The target in one assay is T1, Human renin (Homo sapiens, UniProt P00797).
T1 sequence (P00797 67-406): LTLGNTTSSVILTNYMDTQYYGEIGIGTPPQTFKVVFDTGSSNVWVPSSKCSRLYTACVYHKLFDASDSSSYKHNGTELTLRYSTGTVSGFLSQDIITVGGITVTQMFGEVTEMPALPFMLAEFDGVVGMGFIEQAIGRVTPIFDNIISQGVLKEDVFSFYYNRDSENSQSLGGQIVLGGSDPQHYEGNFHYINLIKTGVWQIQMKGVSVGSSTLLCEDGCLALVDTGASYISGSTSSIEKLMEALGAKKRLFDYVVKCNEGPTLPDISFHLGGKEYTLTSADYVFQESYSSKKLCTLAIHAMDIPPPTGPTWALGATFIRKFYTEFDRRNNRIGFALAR
In words: Human renin inhibition; angiotensin I formed from angiotensinogen quantified by EIA. The following applies: for inhibition at 0.1 µM: read-out: Human renin inhibitory activity, inhibitory activity (%) at 0.1 μM; for Human renin inhibitory activity, inhibitory activity (%) at 0.1 μM: 0.1 μM test compound, substrate human angiotensinogen, 37° C. 30 min.

The next assay has as its system plasma renin activity. In words: Ex vivo plasma renin activity (PRA) test after oral administration. The class given is in vivo, Macaca fascicularis. The following applies: for inhibition at 1 mg/kg: Macaca fascicularis, po, 4 h, read-out: Macaca fascicularis plasma renin activity, PPA inhibitory activity (%, n = 3-7); for Macaca fascicularis plasma renin activity, PPA inhibitory activity (%, n = 3-7): male macaca fascicularis, 1 mg/kg orally in 0.5% methylcellulose, plasma 4 hr after administration, amended with vehicle group. How it is done: Male macaca fascicularis was used. […] PRA was calculated by the following formula.

Where a name gives a salt, the structure may show the parent alone.

Description for Human renin: As a substrate for renin activity measurement, the angiotensinogen mentioned in (5) above was used. 1 μl each of the test compound (containing 100% DMSO) was added to each well of a 384-well plate (ABgene). Renin was diluted with a buffer solution for reaction (20 mM sodium phosphate (pH 7.4)) to a concentration of 57 pM, and 14 μl each of the dilution was added to each well. The dilution was left to stand at 37° C. for 10 min, and then 5 μl of each of a 6 μM solution of substrate angiotensinogen was added to each well to initiate the reaction. […] The amount of angiotensin I produced by an enzyme reaction was quantified by Enzyme Immuno Assay (EIA) described below.
Anti-angiotensin I antibody (Peninsula Laboratories Inc.) diluted 5,000-fold with PBS was added to each well of a 384 well black plate (Nalge Nunc International Co., Ltd.) by 25 μl, and left standing overnight at 4° C. to immobilize the antibody in the plate. The antibody solution was removed, PBS solution (100 μl) containing 1% BSA was added to each well, and the mixture was left standing at room temperature for 2 hr for blocking. The blocking solution was removed, and each well was washed 5 times with 100 μl of 0.05% Tween20-PBS. […] Then, a biotinated angiotensin I solution (AnaSpec, 15 μl) prepared to 1.6 nM with a buffer [20 mM tris-hydrochloric acid (pH 7.4), 150 mM sodium chloride, 0.01% BSA, 0.05% Tween20] was added to each well, mixed with a plate mixer and left standing at room temperature for 1 hr. The solutions were removed from each well, and each well was washed 5 times with 100 μl of 0.05% Tween20-PBS. Horseradish peroxydase Streptavidin (PIERCE Biotechnology inc., 25 μl) diluted to 100 ng/ml with a buffer [20 mM tris-hydrochloric acid (pH 7.4), 150 mM sodium chloride, 0.1% BSA, 0.05% Tween 20] was added to each well and the mixture was left standing at room temperature for 30 min. The solutions were removed from each well, and each well was washed 5 times with 100 μl of 0.05% Tween20-PBS. SuperSignal ELISA femto Maximum Sensitivity Substrate (PIERCE Biotechnology Inc.) was added by 25 μl and luminescence intensity was measured by EnVision (Perkin Elmer Inc.). An analytical curve was drawn from the luminescence intensity of wells containing an angiotensin I standard solution, and the amount of angiotensin I produced by an enzyme reaction was calculated and used as an index of renin activity.

For the molecule `COCCCCn1c(C(=O)N(CC(C)C)[C@@H]2CNC[C@H](C(=O)N3CCOCC3)C2)cc2ccccc21` [Example 3, 1-(4-methoxybutyl)-N-(2-methylpropyl)-N-[(3S,5R)-5-(morpholin-4-ylcarbonyl)piperidin-3-yl]-1H-indole-2-carboxamide hydrochloride], at Human renin, the inhibition at 0.1 µM worked out at 96%.

`COCCOCc1c(C(=O)N(CC(C)C)[C@@H]2CNC[C@H](C(=O)N3CCOCC3)C2)nc2ccccn12` [Example 4, 3-[(2-methoxyethoxy)methyl]-N-(2-methylpropyl)-N-[(3S,5R)-5-(morpholin-4-ylcarbonyl)piperidin-3-yl]imidazo[1,2-a]pyridine-2-carboxamide dihydrochloride]: the inhibition at 0.1 µM on Human renin was 96%. Regarding `COCCCCn1c(C(=O)N(CC(C)C)[C@@H]2CNC[C@H](C(=O)N3CCOCC3)C2)nc2ccccc21` [Example 10, 1-(4-methoxybutyl)-N-(2-methylpropyl)-N-[(3S,5R)-5-(morpholin-4-ylcarbonyl)piperidin-3-yl]-1H-benzimidazole-2-carboxamide dihydrochloride], in the assay on plasma renin activity, the inhibition at 1 mg/kg turned out to be 72%. Also, the “Human renin inhibitory activity, inhibitory activity (%) at 0.1 μM” value at Human renin was 97%. As to `COCCCCn1c(C(=O)N(CC(C)C)[C@@H]2CNC[C@H](C(=O)N3CCOCC3)C2)nc2ccc(F)cc21` [Example 12, 6-fluoro-1-(4-methoxybutyl)-N-(2-methylpropyl)-N-[(3S,5R)-5-(morpholin-4-ylcarbonyl)piperidin-3-yl]-1H-benzimidazole-2-carboxamide dihydrochloride], the inhibition at 0.1 µM at Human renin stood at 97%. For the molecule `COCCCCn1c(C(=O)N(CC(C)C)[C@@H]2CNC[C@H](C(N)=O)C2)nc2ccccc21` [Example 25, N-[(3S,5R)-5-carbamoylpiperidin-3-yl]-1-(4-methoxybutyl)-N-(2-methylpropyl)-1H-benzimidazole-2-carboxamide dihydrochloride], the inhibition at 1 mg/kg with plasma renin activity is 79%. In addition, the inhibition at 0.1 µM on Human renin turned out to be 98%. Regarding `COCCCCn1c(C(=O)N(CC(C)C)[C@@H]2CNC[C@H](C(C)(C)O)C2)nc2ccccc21` [Example 38, N-[(3S,5R)-5-(1-hydroxy-1-methylethyl)piperidin-3-yl]-1-(4-methoxybutyl)-N-(2-methylpropyl)-1H-benzimidazole-2-carboxamide dihydrochloride], the inhibition at 0.1 µM at Human renin is 98%.

Consider `COCCCCn1c(C(=O)N(CC(C)C)[C@@H]2CNC[C@H](CO)C2)nc2ccccc21` [Example 40, N-[(3S,5R)-5-(hydroxymethyl)piperidin-3-yl]-1-(4-methoxybutyl)-N-(2-methylpropyl)-1H-benzimidazole-2-carboxamide dihydrochloride], for which the inhibition at 1 mg/kg with plasma renin activity turned out to be 75%. The inhibition at 0.1 µM at Human renin is 97%. For the molecule `COCCCCn1c(C(=O)N(CC(C)C)[C@@H]2CNC[C@H](C(O)COC)C2)nc2ccccc21` (stereo partly drawn) [Example 48, N-[(3S,5R)-5-(1-hydroxy-2-methoxyethyl)piperidin-3-yl]-1-(4-methoxybutyl)-N-(2-methylpropyl)-1H-benzimidazole-2-carboxamide dihydrochloride], in the assay on plasma renin activity, the inhibition at 1 mg/kg worked out at 78%. Besides, the inhibition at 0.1 µM on Human renin turned out to be 97%.

For `COCCCCn1c(C(=O)N(CC(C)C)[C@@H]2CNC[C@H](C(=O)N3CCOCC3)C2)nc2ccccc21` [Example 49, 1-(4-methoxybutyl)-N-(2-methylpropyl)-N-[(3S,5R)-5-(morpholin-4-ylcarbonyl)piperidin-3-yl]-1H-benzimidazole-2-carboxamide methanesulfonate], the inhibition at 0.1 µM on Human renin is 97%. In the case of `COCCCCn1c(C(=O)N(CC(C)C)[C@@H]2CNC[C@H]([C@@H](O)COC)C2)nc2ccccc21` [Example 73-1, N-{(3S,5R)-5-[(1R)-1-hydroxy-2-methoxyethyl]piperidin-3-yl}-1-(4-methoxybutyl)-N-(2-methylpropyl)-1H-benzimidazole-2-carboxamide dihydrochloride], the inhibition at 1 mg/kg in the assay on plasma renin activity was 77%. Further, at Human renin, the inhibition at 0.1 µM amounted to 96%.

On to `COCCCCn1c(C(=O)N(CC(C)C)[C@@H]2CNC[C@H]([C@H](O)COC)C2)nc2ccccc21` [Example 73-2, N-{(3S,5R)-5-[(1S)-1-hydroxy-2-methoxyethyl]piperidin-3-yl}-1-(4-methoxybutyl)-N-(2-methylpropyl)-1H-benzimidazole-2-carboxamide dihydrochloride], for which the inhibition at 1 mg/kg with plasma renin activity is 90%. For the same molecule, the inhibition at 0.1 µM at Human renin worked out at 96%. As to `COCCCn1c(C(=O)N(CC(C)C)[C@@H]2CNC[C@H](C(=O)N3CCOCC3)C2)nc2ccccc21` [Example 85, 1-(3-methoxypropyl)-N-(2-methylpropyl)-N-[(3S, 5R)-5-(morpholin-4-ylcarbonyl)piperidin-3-yl]-1H-benzimidazole-2-carboxamide 1/2 sulfate], the inhibition at 0.1 µM on Human renin was 97%. As for `CC(C)CN(C(=O)c1nc2ccccn2c1COc1ccccc1)[C@@H]1CNC[C@H](C(=O)N2CCOCC2)C1` [Example 117, N-(2-methylpropyl)-N-[(3S, 5R)-5-(morpholin-4-ylcarbonyl)piperidin-3-yl]-3-(phenoxymethyl)imidazo[1,2-a]pyridine-2-carboxamide dihydrochloride], the inhibition at 0.1 µM on Human renin was determined as 98%. For the molecule `COCCCCc1c(C(=O)N(CC(C)C)[C@@H]2CNC[C@H](C(=O)N3CCOCC3)C2)nnn1-c1ccccc1F` [Example 233, 1-(2-fluorophenyl)-5-(4-methoxybutyl)-N-(2-methylpropyl)-N-[(3S,5R)-5-(morpholin-4-ylcarbonyl)piperidin-3-yl]-1H-1,2,3-triazole-4-carboxamide hydrochloride], in the assay with plasma renin activity, the inhibition at 1 mg/kg was 67%. In addition, the inhibition at 0.1 µM at Human renin is 97%. On the same counts, the results for `COCCCCc1c(C(=O)N(CC(C)C)[C@@H]2CNC[C@H](C(=O)N3CCOCC3)C2)nnn1-c1ccccc1Cl` [Example 235, 1-(2-chlorophenyl)-5-(4-methoxybutyl)-N-(2-methylpropyl)-N-[(3S,5R)-5-(morpholin-4-ylcarbonyl)piperidin-3-yl]-1H-1,2,3-triazole-4-carboxamide hydrochloride] are 62% and 97%. Turning to `CCCN(C(=O)c1nc2ccccc2n1CCCCOC)[C@@H]1CNC[C@H](C(=O)N2CCOCC2)C1` [Example 255, 1-(4-methoxybutyl)-N-[(3S,5R)-5-(morpholin-4-ylcarbonyl)piperidin-3-yl]-N-propyl-1H-benzimidazole-2-carboxamide dihydrochloride], the inhibition at 1 mg/kg in the assay on plasma renin activity was determined as 84%. Take “N-{(3S,5R)-5-[(1R)-1-hydroxyethyl]piperidin-5-yl}-1-(4-methoxybutyl)-N-(2-methylpropyl)-1H-benzimidazole-2-carboxamide carboxamide dihydrochloride [Example 74-2]”: the “Macaca fascicularis plasma renin activity, PPA inhibitory activity (%, n = 3-7)” value in the assay on plasma renin activity is 54%. In addition, at Human renin, the “Human renin inhibitory activity, inhibitory activity (%) at 0.1 μM” value is 96%. Regarding “N-{(3S,5R)-5-[(1S)-1-hydroxyethyl]piperidin-5-yl}-1-(4-methoxybutyl)-N-(2-methylpropyl)-1H-benzimidazole-2-carboxamide dihydrochloride [Example 74-1]”, in the assay with plasma renin activity, the “Macaca fascicularis plasma renin activity, PPA inhibitory activity (%, n = 3-7)” value is reported as 90%. The “Human renin inhibitory activity, inhibitory activity (%) at 0.1 μM” value at Human renin was found to be 94%.

Regarding “N-{(3S, 5R)-5-[(1R)-1-hydroxypropyl]piperidin-5-yl}-1-(4-methoxybutyl)-N-(2-methylpropyl)-1H-benzimidazole-2-carboxamide dihydrochloride [Example 75-2]”, in the assay on plasma renin activity, the “Macaca fascicularis plasma renin activity, PPA inhibitory activity (%, n = 3-7)” value is listed as 71%. Also, the “Human renin inhibitory activity, inhibitory activity (%) at 0.1 μM” value at Human renin is 90%. On the same counts, the results for “N-{(3S, 5R)-5-[(1S)-1-hydroxypropyl]piperidin-5-yl}-1-(4-methoxybutyl)-N-(2-methylpropyl)-1H-benzimidazole-2-carboxamide dihydrochloride [Example 75-1]” are 86% and 95%.

(Values after patent US8664380B2, “Heterocyclic compound and use thereof” (Takeda Pharmaceutical Company Limited, priority 2008, dated 2014).)
